What was measured:
Histone deacetylase 3 [1] = target: T1, Histone deacetylase 3 (Homo sapiens, UniProt O15379); assay: Inhibition of HDAC3 (unknown origin) by ELISA-based assay
Histone deacetylase 1 [2] = target: T2, Histone deacetylase 1 (Homo sapiens, UniProt Q13547); assay: Inhibition of HDAC1 (unknown origin) assessed as remaining enzyme activity at 4 x 10^-6 M by ELISA-based assay
[3] = target: T3, Protein deacetylase HDAC6 (Homo sapiens) (UniProt Q9UBN7); assay: Inhibition of HDAC6 (unknown origin) assessed as remaining enzyme activity at 4 x 10^-7 M by ELISA-based assay
T3 sequence (whole entry): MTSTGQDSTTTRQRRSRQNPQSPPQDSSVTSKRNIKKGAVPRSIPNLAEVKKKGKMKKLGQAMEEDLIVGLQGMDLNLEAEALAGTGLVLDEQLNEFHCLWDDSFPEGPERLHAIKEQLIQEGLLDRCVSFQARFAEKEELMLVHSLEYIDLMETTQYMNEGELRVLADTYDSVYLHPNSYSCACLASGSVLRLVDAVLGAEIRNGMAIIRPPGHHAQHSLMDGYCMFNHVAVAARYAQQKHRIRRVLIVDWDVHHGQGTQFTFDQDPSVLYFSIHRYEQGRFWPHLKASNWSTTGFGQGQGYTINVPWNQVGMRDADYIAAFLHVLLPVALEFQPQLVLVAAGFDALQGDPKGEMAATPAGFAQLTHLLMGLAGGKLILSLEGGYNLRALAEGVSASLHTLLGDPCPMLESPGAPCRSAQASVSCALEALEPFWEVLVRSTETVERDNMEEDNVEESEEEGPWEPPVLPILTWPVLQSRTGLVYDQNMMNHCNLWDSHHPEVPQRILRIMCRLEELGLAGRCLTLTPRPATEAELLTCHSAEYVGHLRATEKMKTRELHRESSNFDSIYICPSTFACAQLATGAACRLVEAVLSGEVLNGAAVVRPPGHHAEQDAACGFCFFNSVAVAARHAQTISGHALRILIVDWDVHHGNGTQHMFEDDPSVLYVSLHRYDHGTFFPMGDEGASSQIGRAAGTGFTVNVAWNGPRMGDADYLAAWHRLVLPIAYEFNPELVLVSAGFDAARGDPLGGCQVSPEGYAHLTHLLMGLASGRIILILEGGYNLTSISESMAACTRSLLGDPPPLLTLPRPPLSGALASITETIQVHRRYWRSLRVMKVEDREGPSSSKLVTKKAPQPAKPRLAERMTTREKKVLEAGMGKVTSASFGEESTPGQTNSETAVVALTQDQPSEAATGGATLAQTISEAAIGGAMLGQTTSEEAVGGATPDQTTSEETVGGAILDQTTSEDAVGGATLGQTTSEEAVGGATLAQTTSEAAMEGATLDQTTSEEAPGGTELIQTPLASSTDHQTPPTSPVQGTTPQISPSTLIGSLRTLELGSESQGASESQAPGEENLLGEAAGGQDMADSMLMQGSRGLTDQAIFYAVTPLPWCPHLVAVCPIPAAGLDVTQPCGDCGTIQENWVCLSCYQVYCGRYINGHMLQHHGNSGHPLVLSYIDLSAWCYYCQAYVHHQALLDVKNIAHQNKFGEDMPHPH

[4] = target: T3, Protein deacetylase HDAC6 (Homo sapiens); assay: Inhibition of HDAC6 (unknown origin) assessed as remaining enzyme activity at 5 x 10^-8 M by ELISA-based assay
Histone deacetylase 3 [5] = target: T1, Histone deacetylase 3; assay: Inhibition of HDAC3 (unknown origin) assessed as remaining enzyme activity at 2 x 10^-6 M by ELISA-based assay
Histone deacetylase 3 [6] = target: T1, Histone deacetylase 3; assay: Inhibition of HDAC3 (unknown origin) assessed as remaining enzyme activity at 4 x 10^-6 M by ELISA-based assay
Histone deacetylase 2 [7] = target: T4, Histone deacetylase 2 (Homo sapiens, UniProt Q92769); assay: Inhibition of HDAC2 (unknown origin) assessed as remaining enzyme activity at 2 x 10^-6 M by ELISA-based assay
T4 sequence (Q92769 whole entry): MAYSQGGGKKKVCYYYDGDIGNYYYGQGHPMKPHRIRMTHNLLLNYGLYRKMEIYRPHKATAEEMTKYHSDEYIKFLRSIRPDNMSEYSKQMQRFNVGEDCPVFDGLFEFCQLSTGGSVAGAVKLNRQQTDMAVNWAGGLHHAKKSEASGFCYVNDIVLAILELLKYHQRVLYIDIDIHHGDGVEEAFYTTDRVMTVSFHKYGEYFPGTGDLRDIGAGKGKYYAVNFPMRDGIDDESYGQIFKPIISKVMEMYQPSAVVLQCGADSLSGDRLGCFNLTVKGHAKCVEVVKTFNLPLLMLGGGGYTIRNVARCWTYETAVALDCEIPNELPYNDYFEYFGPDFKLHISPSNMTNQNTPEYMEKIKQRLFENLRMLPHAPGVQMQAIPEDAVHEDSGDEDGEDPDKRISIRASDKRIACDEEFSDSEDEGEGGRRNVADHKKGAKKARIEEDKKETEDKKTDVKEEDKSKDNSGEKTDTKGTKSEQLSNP

[8] = target: T3, Protein deacetylase HDAC6 (Homo sapiens); assay: Inhibition of HDAC6 (unknown origin) assessed as remaining enzyme activity at 8 x 10^-7 M by ELISA-based assay
Histone deacetylase 2 [9] = target: T4, Histone deacetylase 2; assay: Inhibition of HDAC2 (unknown origin) assessed as remaining enzyme activity at 4 x 10^-6 M by ELISA-based assay
Jurkat [10] = assay: cells; assay type: functional; conditions: Homo sapiens, 44 h
[11] = target: T5, Histone deacetylase 8 (Homo sapiens) (UniProt Q9BY41); assay: Inhibition of HDAC8 (unknown origin) assessed as remaining enzyme activity at 4 x 10^-7 M by ELISA-based assay
T5 sequence (whole entry): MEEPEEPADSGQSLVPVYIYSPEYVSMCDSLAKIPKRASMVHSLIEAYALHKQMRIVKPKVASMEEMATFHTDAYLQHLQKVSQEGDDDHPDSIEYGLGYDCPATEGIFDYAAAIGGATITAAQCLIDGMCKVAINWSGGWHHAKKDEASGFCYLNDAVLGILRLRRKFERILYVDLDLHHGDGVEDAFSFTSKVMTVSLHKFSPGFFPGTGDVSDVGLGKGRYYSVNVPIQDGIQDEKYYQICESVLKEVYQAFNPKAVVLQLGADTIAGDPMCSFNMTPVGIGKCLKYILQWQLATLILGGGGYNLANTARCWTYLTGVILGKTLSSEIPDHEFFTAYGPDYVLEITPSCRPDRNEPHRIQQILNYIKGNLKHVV

Histone deacetylase 1 [12] = target: T2, Histone deacetylase 1; assay: Inhibition of HDAC1 (unknown origin) assessed as remaining enzyme activity at 5 x 10^-7 M by ELISA-based assay
Histone deacetylase 2 [13] = target: T4, Histone deacetylase 2; assay: Inhibition of HDAC2 (unknown origin) by ELISA-based assay
Histone deacetylase 1 [14] = target: T2, Histone deacetylase 1; assay: Inhibition of HDAC1 (unknown origin) by ELISA-based assay
[15] = Inhibition of HDAC in human HeLa-S3 cells lysates pre-incubated for 15 mins before HDAC-Glo I/II substrate addition and measured after 30 mins post substrate addition; assay type: cell-based
Jurkat [16] = assay: cells; assay type: functional; conditions: Homo sapiens, 44 h; remark: listed apart in the source
Histone deacetylase 8 = target: T6, Histone deacetylase 8 (Homo sapiens, UniProt Q9BY41); assay: Inhibition of HDAC8 (unknown origin) by ELISA-based assay
T6 sequence (Q9BY41 whole entry): T5 sequence (whole entry)

[17] = target: T5, Histone deacetylase 8 (Homo sapiens); assay: Inhibition of HDAC8 (unknown origin) assessed as remaining enzyme activity at 1 x 10^-7 M by ELISA-based assay
[18] = target: T3, Protein deacetylase HDAC6 (Homo sapiens); assay: Inhibition of HDAC6 (unknown origin) assessed as remaining enzyme activity at 2 x 10^-7 M by ELISA-based assay
[19] = target: T5, Histone deacetylase 8 (Homo sapiens); assay: Inhibition of HDAC8 (unknown origin) assessed as remaining enzyme activity at 2 x 10^-7 M by ELISA-based assay
Histone deacetylase 1 [20] = target: T2, Histone deacetylase 1; assay: Inhibition of HDAC1 (unknown origin) assessed as remaining enzyme activity at 2 x 10^-6 M by ELISA-based assay
[21] = target: T5, Histone deacetylase 8 (Homo sapiens); assay: Inhibition of HDAC8 (unknown origin) assessed as remaining enzyme activity at 8 x 10^-7 M by ELISA-based assay
[22] = target: T5, Histone deacetylase 8 (Homo sapiens); assay: Inhibition of HDAC8 (unknown origin) assessed as remaining enzyme activity at 1.6 x 10^-6 M by ELISA-based assay

T1 sequence (O15379 whole entry): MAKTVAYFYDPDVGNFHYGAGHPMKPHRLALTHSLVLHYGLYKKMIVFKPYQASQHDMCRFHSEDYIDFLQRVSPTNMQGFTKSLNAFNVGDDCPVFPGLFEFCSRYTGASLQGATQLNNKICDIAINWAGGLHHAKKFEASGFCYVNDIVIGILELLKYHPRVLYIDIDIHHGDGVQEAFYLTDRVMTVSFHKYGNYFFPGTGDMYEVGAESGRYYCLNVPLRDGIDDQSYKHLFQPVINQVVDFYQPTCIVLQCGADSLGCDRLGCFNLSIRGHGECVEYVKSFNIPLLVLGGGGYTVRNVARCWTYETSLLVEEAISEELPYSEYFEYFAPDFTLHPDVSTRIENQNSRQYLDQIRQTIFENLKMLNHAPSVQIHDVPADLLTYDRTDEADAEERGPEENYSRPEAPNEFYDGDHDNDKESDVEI
T2 sequence (Q13547 whole entry): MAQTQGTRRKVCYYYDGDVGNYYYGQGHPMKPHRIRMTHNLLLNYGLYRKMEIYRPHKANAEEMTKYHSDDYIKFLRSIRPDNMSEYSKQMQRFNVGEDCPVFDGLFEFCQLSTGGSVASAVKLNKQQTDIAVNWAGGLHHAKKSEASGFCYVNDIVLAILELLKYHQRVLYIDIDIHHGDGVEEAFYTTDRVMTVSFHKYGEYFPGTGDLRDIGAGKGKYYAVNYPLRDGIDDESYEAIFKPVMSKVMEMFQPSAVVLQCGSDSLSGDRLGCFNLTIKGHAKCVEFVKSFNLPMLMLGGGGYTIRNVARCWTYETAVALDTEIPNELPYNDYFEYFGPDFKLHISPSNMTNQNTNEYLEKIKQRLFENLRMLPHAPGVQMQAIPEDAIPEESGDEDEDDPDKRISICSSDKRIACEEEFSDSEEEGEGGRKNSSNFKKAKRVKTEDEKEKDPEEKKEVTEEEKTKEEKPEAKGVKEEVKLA

SMILES | IC50 (Histone deacetylase 3 [1]) | Activity (Histone deacetylase 1 [2]) | Activity [3] | Activity [4] | Activity (Histone deacetylase 3 [5]) | Activity (Histone deacetylase 3 [6]) | Activity (Histone deacetylase 2 [7]) | Activity [8] | Activity (Histone deacetylase 2 [9]) | viability at 10 µM (Jurkat [10]) | Activity [11] | Activity (Histone deacetylase 1 [12]) | IC50 (Histone deacetylase 2 [13]) | IC50 (Histone deacetylase 1 [14]) | IC50 [15] | viability at 1 µM (Jurkat [16]) | IC50 (Histone deacetylase 8) | Activity [17] | Activity [18] | Activity [19] | also measured
CCCCCCC(CCCC(=O)NO)CCC(=O)Nc1ccccc1 (centres undefined) | 2.9 µM | 37% | 54% | 82% | 67% | 39% | 57% | 34% | 41% | 24% | 51% | 77% | 2.5 µM | 2.1 µM | 6.5 µM | 101% | 0.42 µM | 78% | 66% | 70% | Activity (Histone deacetylase 1 [20]): 54%; Activity [21]: 35%; Activity [22]: 21%
O=C(CCCC(CCC(=O)Nc1ccccc1)Cc1ccccc1)NO (centres undefined) | 5.8 µM | 45% | 43% | 83% | 85% | 53% | 62% | 26% | 49% | 50% | 47% | 84% | 3.5 µM | 2.9 µM | 6.2 µM | 71% | 0.38 µM | 82% | 54% | 65% | Activity (Histone deacetylase 1 [20]): 54%; Activity [21]: 33%; Activity [22]: 19%
CCCCC(CCCC(=O)NO)CCC(=O)Nc1ccccc1 (centres undefined) | 1.6 µM | 18% | 48% | 90% | 44% | 27% | 38% | 28% | 25% | 39% | 50% | 68% | 1.3 µM | 1.1 µM | 5 µM | 67% | 0.43 µM | 83% | 60% | 69% | Activity (Histone deacetylase 1 [20]): 37%; Activity [21]: 35%; Activity [22]: 22%

Reference: ChEMBL document CHEMBL4052702 (Bioorg Med Chem Lett, 2017)
